From patent publication US20130065260A1, “Compositions, Methods and Uses for Simultaneous Assay of Thrombin and Plasmin Generation” (The Regents of the University of Colorado, a body corporate, priority 2009, published 2013)

B1: TF: recombinant human tissue factor, lipidated and non-lipidated, initiates coagulation (protein, UniProt P13726 33-295, looked up)
Tissue factor: SGTTNTVAAYNLTWKSTNFKTILEWEPKPVNQVYTVQISTKSGDWKSKCFYTTDTECDLTDEIVKDVKQTYLARVFSYPAGNVESTGSAGEPLYENSPEFTPYLETNLGQPTIQSFEQVGTKVNVTVEDERTLVRRNNTFLSLRDVFGKDLIYTLYYWKSSSSGKKTAKTNTNEFLIDVDKGENYCFSVQAVIPSRTVNRKSTDSPVECMGQEKGEFREIFYIIGAVVFVVIILVIILAISLHKCRKAGVGQSWKENSPLNVS
modifications: lipidated and non-lipidated
notes: recombinant human tissue factor, lipidated and non-lipidated, initiates coagulation

Legend:
thrombin = assay: Simultaneous thrombin and plasmin generation (STP) assay, thrombin generation; assay type: biochemical, human; conditions: data not shown; for effect on thrombin generation at heparin 1 U/mL: heparin concentration 1 U/mL
Method: Reactant solution is prepared as described previously for the CloFAL assay developed in our laboratory. Briefly, lipidated recombinant human tissue factor (TF) (American Diagnostica Inc, Stamford, Conn.), non-lipidated recombinant human TF (American Diagnostica Inc), and recombinant two-chain tissue plasminogen activator (tPA) (American Diagnostica Inc) are added to a stock solution of Tris-buffered saline (TBS; 66 mM Tris, 130 mM NaCl, pH=7.0) containing 34 mM CaCl2, to a concentration of 10 pM of TF (made from 8.7 pM non-lipidated TF and 1.3 pM lipidated TF) and 900 ng/mL of tPA. Final concentrations are 5 pM TF and 450 ng/mL tPA after addition of reactant solution to plasma samples, as described below. The assay blank consists of TBS alone. The reactant solution is freshly prepared from stored stock solutions of TBS, aliquoted TF, and aliquoted tPA just prior to assay. Final concentrations of TF and tPA ranging from 0-10 pM and 0-900 ng/mL, respectively, were investigated during assay development, with ultimate concentrations of these reagents (as well as ratio of lipidated to non-lipidated TF) selected based upon empiric experiments designed to optimize precision and analytical sensitivity to pathologically and physiologically altered states of coagulation and fibrinolysis, as previously performed with the CloFAL assay
Two fluorometric substrates were used for the detection of the key enzymes, thrombin and plasmin. […]
For each patient sample to be analyzed, 90 μL of reactant solution was added simultaneously to each well in a flat-bottom, black, 96 well Costar assay plate (Fisher Scientific, Santa Clara, Calif.) using a multi-tip automated pipette. […] The plate was then placed into the fluorescent spectrophotometer (Multi-Mode Microplate Reader Synergy 2, Bio-Tek Instruments, Winooski, Vt.) where it was pre-warmed at 37 ° C. for three minutes. […] The plate was then drawn back into the fluorescent spectrophotometer where the sample is initially mixed for five seconds followed by fluorescent intensity measurements taken from each well every 45 seconds for four hours at a fluorescent emission of […] (as determined by the chosen fluorescent substrates). […] The kinetic fluorometric intensity data were exported to Microsoft Excel for additional data analyses in order to generate the aforementioned calculated parameters from the raw data. […]

plasmin = assay: Simultaneous thrombin and plasmin generation (STP) assay, plasmin generation; assay type: biochemical, human; conditions: data not shown; for effect on plasmin generation at heparin 1 U/mL: heparin concentration 1 U/mL
[1] = normal plasma, corn trypsin inhibitor added to citrate whole blood collection tubes, relative to its absence

Molecule | effect on thrombin generation at heparin 1 U/mL (thrombin) | effect on plasmin generation at heparin 1 U/mL (plasmin) | STP findings (thrombin generation) with contact pathway inhibition (thrombin; [1]) | STP findings (plasmin generation) with contact pathway inhibition (plasmin; [1]) | thrombin generation capacity, response to exogenous TF (thrombin; in vitro)
dalteparin | ablation | ablation |  |  | 
corn trypsin inhibitor |  |  | did not alter STP findings | did not alter STP findings | 
porcine unfractionated heparin sodium | ablation | ablation |  |  | 
B1 |  |  |  |  | concentration-responsiveness
